# In patent US7112418B2, “Ion channel” (priority 1995, dated 2006):
# Read-outs that look alike come from different tables or passages of the source.
# Legend:
# SNS sodium channel = SNS sodium channel (Rattus norvegicus, UniProt Q62968); type: cell-based
# [1] = system: Rat brain iia sodium channel; details: read-out: IC50 (TTX Sensitivity); cited from earlier work
# [2] = target: mutated SNS sodium channel (SNS mutant) (Rattus norvegicus, UniProt Q62968, S356F); type: cell-based; details: read-out: IC50 (TTX sensitivity restored)
# [3] = target: muscle type 1 sodium channel (Rattus norvegicus, UniProt P15390); details: read-out: IC50 (TTX Sensitivity); cited from earlier work
# [4] = system: DRG sodium channel transcript; test: Northern blot of adult DRG RNA from rats treated with capsaicin as neonates; type: in vivo, rat; details: neonatal rats treated, total adult DRG RNA
# Procedure: Random primed ^32P-labeled DNA Pst-Acc 1 fragment probes (50 ng, specific activity 2×10^9 c.p.m. per μg DNA) from interdomain region 1 (nucleotide position 1,478-1,892) of the SNS sodium channel nucleic acid sequence were used to probe total RNA extracted from tissues.
# Total RNA was separated on 1.2% agarose-formaldehyde gels, and capillary blotted onto Hibond-N filters (Amersham). The amounts of RNA on the blot were roughly equivalent, as judged by ethidium bromide staining of ribosomal RNA and by hybridization with the ubiquitously expressed L-27 ribosomal protein transcripts. Filters were prehybridized in 50% formamide, 5×SSC containing 0.5% sodium dodecyl sulfate, 5× Denhardts solution, 100 μg/ml boiled sonicated salmon sperm DNA (average size 300 bp), 10 μg/ml poly-U and 10 μg/ml poly-C at 45° C. for 6 h. After 36 hours hybridization in the same conditions using 10^7 c.p.m. per ml hybridization probe, the filters were briefly washed in 2×SSC at room temperature, then twice with 2×SSC with 0.5% SDS at 68° C. for 15 min, followed by a 20 min wash in 0.5% SDS, 0.2×SSC at 68° C. The filters were autoradiographed overnight or for 4 days on autoradiography film (Kodak X-omat).
# [5] = system: DRG sodium channel transcripts; test: RT-PCR of DRG sodium channel transcripts in cultured DRG neurons treated with capsaicin; type: cell-based, rat; details: overnight 10 μM
# Procedure: (§1) cDNA was synthesized with Superscript reverse transcriptase using oligo dT(12-18) primers and purified on Qiagen 5 tips. Polymerase chain reaction (PCR) was used to amplify cDNA (35 cycles, 94° C., 1 min; 55° C., 1 min; and 72° C., 1 min), and products separated on agarose gels before staining with ethidium bromide. L-27 primers (Ninkina et al. (1983) Nucleic Acids Res. 21, 3175-3182) were added to the PCR reaction 5 cycles after the start of the reaction with the DRG sodium channel specific primers which comprised
# [6] = system: DRG sodium channel transcripts; test: RT-PCR of DRG sodium channel transcripts in DRG of neonatal animals treated with capsaicin; type: in vivo, rat; details: 50 mg/kg on 2 consecutive days, DRG isolation 5 days later
# Procedure: as §1
# Sequence of SNS sodium channel (Q62968 other isoform, or with tags, fused parts or gaps with the stated changes): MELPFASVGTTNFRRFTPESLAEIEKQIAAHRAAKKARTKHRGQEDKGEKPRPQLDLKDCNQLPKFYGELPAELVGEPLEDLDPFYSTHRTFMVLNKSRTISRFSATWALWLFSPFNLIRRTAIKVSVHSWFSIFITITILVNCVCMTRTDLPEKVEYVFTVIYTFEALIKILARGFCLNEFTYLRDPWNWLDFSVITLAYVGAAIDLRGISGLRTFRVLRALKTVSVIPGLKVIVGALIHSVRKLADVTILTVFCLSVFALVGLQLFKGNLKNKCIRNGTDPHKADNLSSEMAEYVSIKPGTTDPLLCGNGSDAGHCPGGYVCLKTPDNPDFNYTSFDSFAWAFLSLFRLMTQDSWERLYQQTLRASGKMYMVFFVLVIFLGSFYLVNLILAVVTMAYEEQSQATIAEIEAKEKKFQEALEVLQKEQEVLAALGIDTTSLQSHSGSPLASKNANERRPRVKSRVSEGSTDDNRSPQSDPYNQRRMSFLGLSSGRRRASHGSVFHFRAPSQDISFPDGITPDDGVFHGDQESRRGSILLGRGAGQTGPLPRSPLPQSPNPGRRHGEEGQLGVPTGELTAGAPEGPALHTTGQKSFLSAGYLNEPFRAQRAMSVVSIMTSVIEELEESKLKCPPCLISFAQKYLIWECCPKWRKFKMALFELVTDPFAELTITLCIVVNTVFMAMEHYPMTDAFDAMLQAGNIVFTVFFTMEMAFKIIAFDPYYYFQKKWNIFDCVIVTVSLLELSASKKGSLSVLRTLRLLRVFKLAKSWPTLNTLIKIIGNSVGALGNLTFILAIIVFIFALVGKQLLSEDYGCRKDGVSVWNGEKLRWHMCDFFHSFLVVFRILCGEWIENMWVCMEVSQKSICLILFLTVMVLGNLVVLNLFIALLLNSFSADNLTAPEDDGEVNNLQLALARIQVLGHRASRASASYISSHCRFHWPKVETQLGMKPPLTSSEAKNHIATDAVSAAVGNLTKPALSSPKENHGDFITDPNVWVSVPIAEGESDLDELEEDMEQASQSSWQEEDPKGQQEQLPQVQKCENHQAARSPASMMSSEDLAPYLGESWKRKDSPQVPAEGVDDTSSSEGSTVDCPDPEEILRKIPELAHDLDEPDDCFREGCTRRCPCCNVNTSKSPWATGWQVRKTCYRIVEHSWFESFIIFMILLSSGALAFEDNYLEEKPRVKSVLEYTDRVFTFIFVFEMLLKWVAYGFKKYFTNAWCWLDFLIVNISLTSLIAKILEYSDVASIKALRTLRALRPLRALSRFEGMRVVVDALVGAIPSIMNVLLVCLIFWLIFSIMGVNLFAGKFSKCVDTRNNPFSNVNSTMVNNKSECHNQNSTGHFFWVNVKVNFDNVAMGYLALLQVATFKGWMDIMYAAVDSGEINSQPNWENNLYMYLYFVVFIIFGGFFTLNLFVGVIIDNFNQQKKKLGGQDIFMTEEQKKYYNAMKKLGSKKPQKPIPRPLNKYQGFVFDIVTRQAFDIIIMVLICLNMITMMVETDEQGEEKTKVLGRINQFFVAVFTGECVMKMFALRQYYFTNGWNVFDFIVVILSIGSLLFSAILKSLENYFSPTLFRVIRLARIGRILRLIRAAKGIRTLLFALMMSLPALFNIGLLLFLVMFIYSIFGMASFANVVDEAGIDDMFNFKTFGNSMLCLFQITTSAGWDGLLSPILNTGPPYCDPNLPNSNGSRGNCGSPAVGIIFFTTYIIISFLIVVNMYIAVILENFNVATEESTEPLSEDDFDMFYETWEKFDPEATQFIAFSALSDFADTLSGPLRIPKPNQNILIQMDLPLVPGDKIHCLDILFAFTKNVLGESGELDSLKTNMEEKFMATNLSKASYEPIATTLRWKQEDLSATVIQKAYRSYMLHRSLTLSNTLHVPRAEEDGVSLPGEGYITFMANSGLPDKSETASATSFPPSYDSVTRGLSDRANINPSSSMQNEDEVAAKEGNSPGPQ
# Sequence of muscle type 1 sodium channel (P15390 whole entry, looked up): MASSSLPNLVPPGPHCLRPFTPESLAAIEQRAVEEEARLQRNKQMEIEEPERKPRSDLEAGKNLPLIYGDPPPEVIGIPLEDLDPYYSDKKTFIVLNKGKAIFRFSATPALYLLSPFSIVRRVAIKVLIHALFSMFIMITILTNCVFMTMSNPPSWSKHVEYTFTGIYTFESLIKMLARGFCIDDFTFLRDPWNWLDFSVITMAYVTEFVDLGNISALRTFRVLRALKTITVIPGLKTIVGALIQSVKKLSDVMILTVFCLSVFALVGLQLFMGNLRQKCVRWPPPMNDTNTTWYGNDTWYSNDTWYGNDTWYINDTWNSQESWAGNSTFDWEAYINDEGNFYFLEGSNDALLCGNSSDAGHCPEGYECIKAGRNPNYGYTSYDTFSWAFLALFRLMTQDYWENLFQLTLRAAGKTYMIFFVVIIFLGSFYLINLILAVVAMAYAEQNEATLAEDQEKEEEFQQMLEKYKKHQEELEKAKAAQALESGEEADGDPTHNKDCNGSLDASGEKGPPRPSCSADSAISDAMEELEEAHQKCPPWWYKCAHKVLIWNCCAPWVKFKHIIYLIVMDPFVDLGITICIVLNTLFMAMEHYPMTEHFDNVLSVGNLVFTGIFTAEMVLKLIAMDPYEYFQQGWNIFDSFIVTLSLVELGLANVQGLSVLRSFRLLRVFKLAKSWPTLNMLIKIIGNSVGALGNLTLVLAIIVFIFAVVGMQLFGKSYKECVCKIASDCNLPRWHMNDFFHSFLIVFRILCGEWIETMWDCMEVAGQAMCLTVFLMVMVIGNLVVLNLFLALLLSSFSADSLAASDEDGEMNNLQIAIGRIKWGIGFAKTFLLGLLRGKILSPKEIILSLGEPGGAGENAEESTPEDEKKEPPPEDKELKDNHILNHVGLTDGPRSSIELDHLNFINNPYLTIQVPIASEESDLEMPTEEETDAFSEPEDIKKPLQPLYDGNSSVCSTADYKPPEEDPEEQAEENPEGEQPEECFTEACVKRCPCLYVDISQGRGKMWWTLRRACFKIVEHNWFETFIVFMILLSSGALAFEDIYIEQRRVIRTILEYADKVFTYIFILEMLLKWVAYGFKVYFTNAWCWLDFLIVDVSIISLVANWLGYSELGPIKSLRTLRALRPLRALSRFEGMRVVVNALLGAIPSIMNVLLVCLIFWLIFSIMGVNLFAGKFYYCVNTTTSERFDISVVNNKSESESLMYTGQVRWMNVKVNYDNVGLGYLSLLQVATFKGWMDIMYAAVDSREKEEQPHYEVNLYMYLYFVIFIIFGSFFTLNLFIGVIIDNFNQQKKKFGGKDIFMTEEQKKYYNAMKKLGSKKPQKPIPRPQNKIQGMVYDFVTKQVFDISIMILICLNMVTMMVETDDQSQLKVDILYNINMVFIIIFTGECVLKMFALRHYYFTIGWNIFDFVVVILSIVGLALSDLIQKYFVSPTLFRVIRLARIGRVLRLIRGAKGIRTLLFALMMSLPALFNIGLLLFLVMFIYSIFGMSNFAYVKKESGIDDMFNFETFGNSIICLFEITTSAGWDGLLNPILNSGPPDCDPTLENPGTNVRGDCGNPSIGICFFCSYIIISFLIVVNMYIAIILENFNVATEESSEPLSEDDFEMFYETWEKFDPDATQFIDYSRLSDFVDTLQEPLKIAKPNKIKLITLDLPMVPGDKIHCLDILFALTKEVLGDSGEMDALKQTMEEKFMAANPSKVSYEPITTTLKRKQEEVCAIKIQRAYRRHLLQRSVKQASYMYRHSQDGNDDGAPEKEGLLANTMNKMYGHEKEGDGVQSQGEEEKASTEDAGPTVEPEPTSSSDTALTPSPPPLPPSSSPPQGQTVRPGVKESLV
compound,measurement,setting,value
"NC1=N[C@H](O)[C@H]2[C@H]3O[C@]4(O)O[C@@H]([C@@H](O)[C@@]2(N1)[C@@H]4O)[C@]3(O)CO [TTX, tetrodotoxin]",block of the channel,SNS sodium channel,only partially blocked
same,effect on peak Na+ current,SNS sodium channel,no effect
same,effect on the channel,SNS sodium channel,unaffected
same,reduction of peak Na+ current,SNS sodium channel,19.1±8.3%
same,reversibility of effect on peak Na+ current,SNS sodium channel,quickly reversible upon washout
same,IC50,SNS sodium channel; read-out: IC50 (TTX Sensitivity),60000 nM
same,IC50,SNS sodium channel; read-out: IC50 (relative insensitivity to TTX),> 1000 nM
same,IC50,SNS sodium channel; read-out: estimated half-maximal inhibitory concentration (IC50),59600 ± 10100 nM
same,IC50,[1],18 nM
same,IC50,[2],2.5 nM
same,IC50,[3],40 nM
O=C1NC(=O)C(c2ccccc2)(c2ccccc2)N1 [phenytoin],effect on peak current,"SNS sodium channel; 100 μM, depolarizing pulses from −60 mV to +10 mV, 1 every min",no effect
COc1cc(CNC(=O)CCCC/C=C/C(C)C)ccc1O [capsaicin],DRG sodium channel northern blot signal,[4],substantially reduced
same,DRG sodium channel signal (RT-PCR) compared with controls,[5],significant diminution
same,DRG sodium channel signal (RT-PCR) compared with controls,[6],significant diminution
CCN(CC)CC(=O)Nc1c(C)cccc1C [lignocaine],maximum block of peak current,SNS sodium channel,41.7±5.4%
